{"source": "patent US20090068290A1", "about": "“BIFEPRUNOX DOSES FOR TREATING SCHIZOPHRENIA” (priority 2006, published 2009)", "format_in_all_cases": "in vivo, human", "key": {"[1]": {"assay": "Body weight, Clinical Study One", "description": "Statistical testing of the change from Baseline in weight was performed using similar methodology to that used for the secondary efficacy parameters (an ANCOVA model with factors for treatment and weight at Baseline). Pairwise comparisons of the bifeprunox treatment groups versus placebo were all statistically significant (bifeprunox 5 mg [p=0.025], bifeprunox 10 mg [p=0.009] and bifeprunox 20 mg [p=0.031] for the difference between bifeprunox and placebo mean change from Baseline in weight at Endpoint."}, "[2]": {"test_system": "adult subjects with schizophrenia", "assay": "PANSS negative symptom subscale score, Clinical Study Two", "details": "LOCF, ITT; for PANSS Negative Symptom Subscale Score, Trt Effect (bifeprunox—placebo): ANCOVA", "description": "Rating scale assessments were performed weekly, except for week 5, to measure the change from baseline to endpoint of the PANSS total score. Other assessments included: PANSS positive symptom subscale score, PANSS negative symptom subscale score, PANSS general pschopathology subscale score, BPRS total score, BPRS psychosis score, the CGI-S score, the CGI-I score, responder rates based on the PANSS total score, and the Calgary Depression Scale for Schizophrenia (CDSS). […]\nSubjects who completed this study had the option to continue in the long-term. […] Risperidone-treated subjects were titrated from 2 mg to 6 mg daily over a three-day period and were subsequently maintained at 6 mg/day for the remainder of the treatment period. […] Blood samples were also obtained at Screening/Baseline, Week 3, and Week 6 for clinical laboratory assessments."}, "[3]": {"assay": "Body weight, Clinical Study Two"}, "[4]": {"test_system": "adult subjects with schizophrenia", "assay": "PANSS general psychopathology subscale score, Clinical Study Three", "details": "Bifeprunox 20 mg, LOCF, ITT population", "text": "SECONDARY OBJECTIVES To assess the efficacy of bifeprunox in treating schizophrenia using the Positive Symptom sub-scale score of the PANSS, the Negative Symptom sub-scale score of the PANSS, the General Psychopathology sub-scale of the PANSS, Brief Psychiatric Rating Scale (BPRS) total score derived from the PANSS, BPRS psychosis score derived from the PANSS, the Clinical Global Impression Severity of Illness score (CGI-S), the Clinical Global Impression Improvement score (CGI-I), CGI-I responder rate, PANSS responder rate based on the PANSS total score, Calgary Depression Scale for Schizophrenia (CDSS), and Subject Satisfaction rating.\nThere were four treatment arms in this study, approximately 144 subjects per arm. […] After completing the Single-Blind Placebo Lead-in Period of at least three days, bifeprunox-treated subjects were titrated from 0.25 mg up to 20 mg/day or 30 mg/day according to a standardized titration scheme over a seven- or eight-day period, respectively. When the assigned dose was reached, subjects were maintained at that dose for the remainder of the six week treatment period. […] Subjects were hospitalized (if not already inpatients) after eligibility for study entry was verified, starting from the Screening Visit until at least 10 days after Baseline. Subjects could be hospitalized longer than 10 days if considered medically necessary by the Investigator. Rating scale assessments for efficacy and abnormal movement disorders were done weekly except for Week 5. […] Subject satisfaction with study medication was assessed at Week 6."}, "[5]": {"details": "Bifeprunox 30 mg, Week 6/Endpoint"}, "[6]": {"details": "Bifeprunox 40 mg, Week 6/Endpoint"}}, "data": [{"smiles": "O=c1[nH]c2cccc(N3CCN(Cc4cccc(-c5ccccc5)c4)CC3)c2o1", "note": "[Bifeprunox, 7-[4-([1,1′-biphenyl]-3-ylmethyl)-1-piperazinyl]-2(3H)-benzoxazolone]", "values": [{"measurement": "mean weight change at Endpoint", "setting": "[1]; bifeprunox 5 mg", "result": "−1.0", "unit": "lb"}, {"measurement": "subjects whose weight decreased by more than 7%", "setting": "[1]; bifeprunox 5 mg", "result": 6, "unit": "%"}, {"measurement": "mean weight change at Endpoint", "setting": "[1]; bifeprunox 10 mg", "result": "−1.3", "unit": "lb"}, {"measurement": "subjects whose weight decreased by more than 7%", "setting": "[1]; bifeprunox 10 mg", "result": 7, "unit": "%"}, {"measurement": "mean weight change at Endpoint", "setting": "[1]; bifeprunox 20 mg", "result": "−0.6", "unit": "lbs"}, {"measurement": "subjects whose weight decreased by more than 7%", "setting": "[1]; bifeprunox 20 mg", "result": 8, "unit": "%"}, {"measurement": "body weight (in words)", "setting": "[1]; bifeprunox groups, 6 weeks", "result": "Mild weight loss"}, {"measurement": "weight compared to placebo", "setting": "[1]; bifeprunox, 6 weeks (Example 4)", "result": "statistically significant (P<0.05) weight decrease"}, {"measurement": "Change from Baseline in PANSS Negative Symptom Subscale Score, Mean (SD)", "setting": "[2]; Bifeprunox 30 mg, Week 1", "result": "−1.6 (3.7)"}, {"measurement": "Change from Baseline in PANSS Negative Symptom Subscale Score, Median", "setting": "[2]; Bifeprunox 30 mg, Week 1", "result": "−1"}, {"measurement": "Change from Baseline in PANSS Negative Symptom Subscale Score, Mean (SD)", "setting": "[2]; Bifeprunox 30 mg, Week 2", "result": "2.6 (4.4)"}, {"measurement": "Change from Baseline in PANSS Negative Symptom Subscale Score, Median", "setting": "[2]; Bifeprunox 30 mg, Week 2", "result": "−2"}, {"measurement": "Change from Baseline in PANSS Negative Symptom Subscale Score, Mean (SD)", "setting": "[2]; Bifeprunox 30 mg, Week 3", "result": "−3.0 (5.0)"}, {"measurement": "Change from Baseline in PANSS Negative Symptom Subscale Score, Median", "setting": "[2]; Bifeprunox 30 mg, Week 3", "result": "−3"}, {"measurement": "Change from Baseline in PANSS Negative Symptom Subscale Score, Mean (SD)", "setting": "[2]; Bifeprunox 30 mg, Week 4", "result": "−3.1 (5.3)"}, {"measurement": "Change from Baseline in PANSS Negative Symptom Subscale Score, Median", "setting": "[2]; Bifeprunox 30 mg, Week 4", "result": "−2"}, {"measurement": "Change from Baseline in PANSS Negative Symptom Subscale Score, Mean (SD)", "setting": "[2]; [5]", "result": "−3.1 (5.6)"}, {"measurement": "Change from Baseline in PANSS Negative Symptom Subscale Score, Median", "setting": "[2]; [5]", "result": "−2"}, {"measurement": "PANSS Negative Symptom Subscale Score, Trt Effect (bifeprunox—placebo)", "setting": "[2]; [5]", "result": "−1.4"}, {"measurement": "Change from Baseline in PANSS Negative Symptom Subscale Score, Mean (SD)", "setting": "[2]; Bifeprunox 40 mg, Week 1", "result": "−1.2 (3.3)"}, {"measurement": "Change from Baseline in PANSS Negative Symptom Subscale Score, Median", "setting": "[2]; Bifeprunox 40 mg, Week 1", "result": "−1"}, {"measurement": "Change from Baseline in PANSS Negative Symptom Subscale Score, Mean (SD)", "setting": "[2]; Bifeprunox 40 mg, Week 2", "result": "−1.9 (4.0)"}, {"measurement": "Change from Baseline in PANSS Negative Symptom Subscale Score, Median", "setting": "[2]; Bifeprunox 40 mg, Week 2", "result": "−2"}, {"measurement": "Change from Baseline in PANSS Negative Symptom Subscale Score, Mean (SD)", "setting": "[2]; Bifeprunox 40 mg, Week 3", "result": "−2.2 (4.7)"}, {"measurement": "Change from Baseline in PANSS Negative Symptom Subscale Score, Median", "setting": "[2]; Bifeprunox 40 mg, Week 3", "result": "−1"}, {"measurement": "Change from Baseline in PANSS Negative Symptom Subscale Score, Mean (SD)", "setting": "[2]; Bifeprunox 40 mg, Week 4", "result": "−2.1 (4.9)"}, {"measurement": "Change from Baseline in PANSS Negative Symptom Subscale Score, Median", "setting": "[2]; Bifeprunox 40 mg, Week 4", "result": "−1"}, {"measurement": "Change from Baseline in PANSS Negative Symptom Subscale Score, Mean (SD)", "setting": "[2]; [6]", "result": "−2.2 (5.4)"}, {"measurement": "Change from Baseline in PANSS Negative Symptom Subscale Score, Median", "setting": "[2]; [6]", "result": "−1"}, {"measurement": "PANSS Negative Symptom Subscale Score, Trt Effect (bifeprunox—placebo)", "setting": "[2]; [6]", "result": "−0.9"}, {"measurement": "Weight, Baseline Mean of subjects with Endpoint change", "setting": "[3]; Bifeprunox 30 mg", "result": 168.1, "unit": "lbs"}, {"measurement": "Weight, Baseline Mean of subjects with Week 6 change", "setting": "[3]; Bifeprunox 30 mg", "result": 166.1, "unit": "lbs"}, {"measurement": "Weight, Baseline, Max", "setting": "[3]; Bifeprunox 30 mg", "result": 360, "unit": "lbs"}, {"measurement": "Weight, Baseline, Mean (SD)", "setting": "[3]; Bifeprunox 30 mg", "result": "169.2 (55.3) lbs"}, {"measurement": "Weight, Baseline, Median", "setting": "[3]; Bifeprunox 30 mg", "result": 161, "unit": "lbs"}, {"measurement": "Weight, Baseline, Min", "setting": "[3]; Bifeprunox 30 mg", "result": 84, "unit": "lbs"}, {"measurement": "Weight, Change from Baseline at Endpoint, Max", "setting": "[3]; Bifeprunox 30 mg", "result": 9, "unit": "lbs"}, {"measurement": "Weight, Change from Baseline at Endpoint, Mean (SD)", "setting": "[3]; Bifeprunox 30 mg", "result": "−2.2 (6.7) lbs"}, {"measurement": "Weight, Change from Baseline at Endpoint, Median", "setting": "[3]; Bifeprunox 30 mg", "result": 0, "unit": "lbs"}, {"measurement": "Weight, Change from Baseline at Endpoint, Min", "setting": "[3]; Bifeprunox 30 mg", "result": "−32", "unit": "lbs"}, {"measurement": "Weight, Change from Baseline at Week 6, Max", "setting": "[3]; Bifeprunox 30 mg", "result": 8, "unit": "lbs"}, {"measurement": "Weight, Change from Baseline at Week 6, Mean (SD)", "setting": "[3]; Bifeprunox 30 mg", "result": "−4.3 (8.2) lbs"}, {"measurement": "Weight, Change from Baseline at Week 6, Median", "setting": "[3]; Bifeprunox 30 mg", "result": "−2", "unit": "lbs"}, {"measurement": "Weight, Change from Baseline at Week 6, Min", "setting": "[3]; Bifeprunox 30 mg", "result": "−32", "unit": "lbs"}, {"measurement": "mean weight change at Endpoint", "setting": "[3]; Bifeprunox 30 mg", "result": "−2.2", "unit": "lbs"}, {"measurement": "Weight, Baseline Mean of subjects with Endpoint change", "setting": "[3]; Bifeprunox 40 mg", "result": 160.7, "unit": "lbs"}, {"measurement": "Weight, Baseline Mean of subjects with Week 6 change", "setting": "[3]; Bifeprunox 40 mg", "result": 162.0, "unit": "lbs"}, {"measurement": "Weight, Baseline, Max", "setting": "[3]; Bifeprunox 40 mg", "result": 378, "unit": "lbs"}, {"measurement": "Weight, Baseline, Mean (SD)", "setting": "[3]; Bifeprunox 40 mg", "result": "161.9 (46.6) lbs"}, {"measurement": "Weight, Baseline, Median", "setting": "[3]; Bifeprunox 40 mg", "result": 155, "unit": "lbs"}, {"measurement": "Weight, Baseline, Min", "setting": "[3]; Bifeprunox 40 mg", "result": 84, "unit": "lbs"}, {"measurement": "Weight, Change from Baseline at Endpoint, Max", "setting": "[3]; Bifeprunox 40 mg", "result": 15, "unit": "lbs"}, {"measurement": "Weight, Change from Baseline at Endpoint, Mean (SD)", "setting": "[3]; Bifeprunox 40 mg", "result": "−1.9 (5.8) lbs"}, {"measurement": "Weight, Change from Baseline at Endpoint, Median", "setting": "[3]; Bifeprunox 40 mg", "result": "−1", "unit": "lbs"}, {"measurement": "Weight, Change from Baseline at Endpoint, Min", "setting": "[3]; Bifeprunox 40 mg", "result": "−18", "unit": "lbs"}, {"measurement": "Weight, Change from Baseline at Week 6, Max", "setting": "[3]; Bifeprunox 40 mg", "result": 10, "unit": "lbs"}, {"measurement": "Weight, Change from Baseline at Week 6, Mean (SD)", "setting": "[3]; Bifeprunox 40 mg", "result": "−3.1 (5.8) lbs"}, {"measurement": "Weight, Change from Baseline at Week 6, Median", "setting": "[3]; Bifeprunox 40 mg", "result": "−2", "unit": "lbs"}, {"measurement": "body weight (in words)", "setting": "[3]; bifeprunox 30, 40 mg, 6 weeks", "result": "Small comparable decreases in body weight"}, {"measurement": "Change from Baseline in PASS General Psychopathology Subscale Score, Mean (SD)", "setting": "[4]; Week 1", "result": "−2.4 (6.7)"}, {"measurement": "Change from Baseline in PASS General Psychopathology Subscale Score, Median", "setting": "[4]; Week 1", "result": "−2"}, {"measurement": "Change from Baseline in PASS General Psychopathology Subscale Score, Mean (SD)", "setting": "[4]; Week 2", "result": "−4.6 (8.4)"}, {"measurement": "Change from Baseline in PASS General Psychopathology Subscale Score, Median", "setting": "[4]; Week 2", "result": "−5"}, {"measurement": "Change from Baseline in PASS General Psychopathology Subscale Score, Mean (SD)", "setting": "[4]; Week 3", "result": "−5.6 (9.3)"}]}]}
